Assay results published in the supplement of paper PMC4862054.

system: DU-4475; assay: normalised response (% of control), CellTiter-Glo; higher = more viable cells (100 = DMSO, 0 = benzethonium chloride kill control); conditions: incubation time: 72 h
Experimental: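 DSRT, 72 h incubation, CellTox Green / CellTiter-Glo readout. Signal is normalised to DMSO and benzethonium chloride controls. Value is the normalised response at the highest dose.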

Row | Structure (SMILES) | normalised response
1 | Nc1cc(C(F)(F)F)c(-c2cc(N3CCOCC3)nc(N3CCOCC3)n2)cn1 [Buparlisib] (10000 nM) | 80.2%
2 | CNC(=O)c1ccc(N2C(=S)N(c3ccc(C#N)c(C(F)(F)F)c3)C(=O)C2(C)C)cc1F [Enzalutamide] (10000 nM) | 92.6%
3 | CCOC(=O)CCNc1cc(N2CCc3ccccc3CC2)nc(-c2ccccn2)n1 [GSK-J4] (100000 nM) | 0.52%
4 | Cc1cc(Nc2cc(CN3CCOCC3)c3nc(C)c(Cc4ccc(Cl)cc4F)n3n2)n[nH]1 [Gandotinib] (10000 nM) | 72.3%
5 | CNC(=O)c1ccc(N2C(=S)N(c3ccc(C#N)c(C(F)(F)F)c3)C(=O)C23CCC3)cc1F [RD162] (10000 nM) | 95.5%
6 | S=P(N1CC1)(N1CC1)N1CC1 [Thio-TEPA] (50000 nM) | 100%

system: BT-549; assay: normalised response (% of control), CellTox Green; higher = less cell death (100 = DMSO, 0 = benzethonium chloride kill control); conditions: incubation time: 72 h
Summary of the method: (§1)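 Two readouts were taken after 72 h: CellTox Green fluorescence (485/520 nm) first, then CellTiter-Glo luminescence after 10 min at room temperature. Breast cancer cell lines had been seeded as 20 µl suspension into 384-well plates holding compound at 5 concentrations in 10-fold steps across a compound-specific 10,000-fold range. Each value is a normalised signal at a single concentration, with plates scaled to 0.1 % DMSO (100) and a positive kill control (0).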

Row | Structure (SMILES) | normalised response
7 | CCn1c(-c2nonc2N)nc2cnc(Oc3cccc(NC(=O)c4ccc(OCCN5CCOCC5)cc4)c3)cc21 (10000 nM) | 100%
8 | COc1cc(O)c2c(c1)/C=C/C[C@H](O)[C@H](O)C(=O)/C=C\C[C@H](C)OC2=O [(5Z)-7-Oxozeaenol] (10000 nM) | 79.2%
9 | CNC(=O)c1cccc(-c2ccc3c(N4CCOC[C@@H]4C)nc(N4CCOC[C@@H]4C)nc3n2)c1 [AZD2014] (10000 nM) | 74.9%
10 | Nc1cc(C(F)(F)F)c(-c2cc(N3CCOCC3)nc(N3CCOCC3)n2)cn1 [Buparlisib] (10000 nM) | 33.8%
11 | CNC(=O)c1ccc(N2C(=S)N(c3ccc(C#N)c(C(F)(F)F)c3)C(=O)C2(C)C)cc1F [Enzalutamide] (10000 nM) | 70.1%
12 | CCOC(=O)CCNc1cc(N2CCc3ccccc3CC2)nc(-c2ccccn2)n1 [GSK-J4] (100000 nM) | -16.3%
13 | Cc1cc(Nc2cc(CN3CCOCC3)c3nc(C)c(Cc4ccc(Cl)cc4F)n3n2)n[nH]1 [Gandotinib] (10000 nM) | 83.8%
14 | CNC(=O)c1ccc(N2C(=S)N(c3ccc(C#N)c(C(F)(F)F)c3)C(=O)C23CCC3)cc1F [RD162] (10000 nM) | 84.9%
15 | S=P(N1CC1)(N1CC1)N1CC1 [Thio-TEPA] (50000 nM) | 93.5%

system: HCC1143; assay: as above; conditions: incubation time: 72 h
Summary of the method: as §1

Row | Structure (SMILES) | normalised response
16 | CCn1c(-c2nonc2N)nc2cnc(Oc3cccc(NC(=O)c4ccc(OCCN5CCOCC5)cc4)c3)cc21 (10000 nM) | -33.8%
17 | COc1cc(O)c2c(c1)/C=C/C[C@H](O)[C@H](O)C(=O)/C=C\C[C@H](C)OC2=O [(5Z)-7-Oxozeaenol] (10000 nM) | 135%
18 | CNC(=O)c1cccc(-c2ccc3c(N4CCOC[C@@H]4C)nc(N4CCOC[C@@H]4C)nc3n2)c1 [AZD2014] (10000 nM) | 110%
19 | Nc1cc(C(F)(F)F)c(-c2cc(N3CCOCC3)nc(N3CCOCC3)n2)cn1 [Buparlisib] (10000 nM) | 68.6%
20 | CNC(=O)c1ccc(N2C(=S)N(c3ccc(C#N)c(C(F)(F)F)c3)C(=O)C2(C)C)cc1F [Enzalutamide] (10000 nM) | 117%
21 | CCOC(=O)CCNc1cc(N2CCc3ccccc3CC2)nc(-c2ccccn2)n1 [GSK-J4] (100000 nM) | 24.1%
22 | Cc1cc(Nc2cc(CN3CCOCC3)c3nc(C)c(Cc4ccc(Cl)cc4F)n3n2)n[nH]1 [Gandotinib] (10000 nM) | 100%

system: HDQ-P1; assay: as above; conditions: incubation time: 72 h
Summary of the method: as §1

Row | Structure (SMILES) | normalised response
23 | CCn1c(-c2nonc2N)nc2cnc(Oc3cccc(NC(=O)c4ccc(OCCN5CCOCC5)cc4)c3)cc21 (10000 nM) | 109%
24 | COc1cc(O)c2c(c1)/C=C/C[C@H](O)[C@H](O)C(=O)/C=C\C[C@H](C)OC2=O [(5Z)-7-Oxozeaenol] (10000 nM) | 87.9%
25 | CNC(=O)c1cccc(-c2ccc3c(N4CCOC[C@@H]4C)nc(N4CCOC[C@@H]4C)nc3n2)c1 [AZD2014] (10000 nM) | 104%
26 | Nc1cc(C(F)(F)F)c(-c2cc(N3CCOCC3)nc(N3CCOCC3)n2)cn1 [Buparlisib] (10000 nM) | 85.7%
27 | CNC(=O)c1ccc(N2C(=S)N(c3ccc(C#N)c(C(F)(F)F)c3)C(=O)C2(C)C)cc1F [Enzalutamide] (10000 nM) | 112%
28 | CCOC(=O)CCNc1cc(N2CCc3ccccc3CC2)nc(-c2ccccn2)n1 [GSK-J4] (100000 nM) | -15.5%
29 | Cc1cc(Nc2cc(CN3CCOCC3)c3nc(C)c(Cc4ccc(Cl)cc4F)n3n2)n[nH]1 [Gandotinib] (10000 nM) | 102%
30 | CNC(=O)c1ccc(N2C(=S)N(c3ccc(C#N)c(C(F)(F)F)c3)C(=O)C23CCC3)cc1F [RD162] (10000 nM) | 106%
31 | S=P(N1CC1)(N1CC1)N1CC1 [Thio-TEPA] (50000 nM) | 97.6%

system: HCC1599; assay: as above; conditions: incubation time: 72 h
Summary of the method: as §1

Row | Structure (SMILES) | normalised response
32 | CCn1c(-c2nonc2N)nc2cnc(Oc3cccc(NC(=O)c4ccc(OCCN5CCOCC5)cc4)c3)cc21 (10000 nM) | 97.9%
33 | COc1cc(O)c2c(c1)/C=C/C[C@H](O)[C@H](O)C(=O)/C=C\C[C@H](C)OC2=O [(5Z)-7-Oxozeaenol] (10000 nM) | 97.8%
34 | CNC(=O)c1cccc(-c2ccc3c(N4CCOC[C@@H]4C)nc(N4CCOC[C@@H]4C)nc3n2)c1 [AZD2014] (10000 nM) | 95%
35 | Nc1cc(C(F)(F)F)c(-c2cc(N3CCOCC3)nc(N3CCOCC3)n2)cn1 [Buparlisib] (10000 nM) | 93.4%
36 | CNC(=O)c1ccc(N2C(=S)N(c3ccc(C#N)c(C(F)(F)F)c3)C(=O)C2(C)C)cc1F [Enzalutamide] (10000 nM) | 96.7%
37 | CCOC(=O)CCNc1cc(N2CCc3ccccc3CC2)nc(-c2ccccn2)n1 [GSK-J4] (100000 nM) | 70.9%
38 | Cc1cc(Nc2cc(CN3CCOCC3)c3nc(C)c(Cc4ccc(Cl)cc4F)n3n2)n[nH]1 [Gandotinib] (10000 nM) | 92%
39 | CNC(=O)c1ccc(N2C(=S)N(c3ccc(C#N)c(C(F)(F)F)c3)C(=O)C23CCC3)cc1F [RD162] (10000 nM) | 97.1%
40 | S=P(N1CC1)(N1CC1)N1CC1 [Thio-TEPA] (50000 nM) | 97.7%

system: CAL-148; assay: as above; conditions: incubation time: 72 h
Summary of the method: as §1

Row | Structure (SMILES) | normalised response
41 | CCn1c(-c2nonc2N)nc2cnc(Oc3cccc(NC(=O)c4ccc(OCCN5CCOCC5)cc4)c3)cc21 (10000 nM) | -66.5%
